# Test results taken from patent publication US20090285834A1, “NOVEL MEMORY CTL INDUCTION POTENTIATOR” (DAINIPPON SUMITOMO PHARMA CO., LTD., priority 2005, published 2009).
# Key:
# [1] = system: EG7 (OVA-expressing EL4); type: in vivo, mouse (C57BL/6NCrj); conditions: with peptide vaccine; EG7 transplanted 21 days after peptide administration; followed to day 28; compared with PBS; FIG. 5
# Description: Twenty-one days after peptide administration, 5×10^6 EG7 (OVA-expressing EL4: ATCC) suspended in 100 μL PBS was intradermally transplanted at the right flank using a 27 G injection needle after shaving. Tumor diameters (minimum diameter, maximum diameter) were measured using electronic calipers twice a week from 1 week to 28 days after EG7 transplantation, and tumor volumes were calculated.
# [2] = system: cytokine production; conditions: in vivo; cited from earlier work
# [3] = system: lymphocytes; conditions: in vivo; cited from earlier work
Compound,tumor growth suppression (tumor volume) [1],time from which cytokine production is exhibited after administration [2],time at which the reduction in lymphocytes reaches a peak [3]
CCOCc1nc2c(N)nc3ccccc3c2n1CC(C)(C)O [R848],a slight suppression against proliferation was observed,≥ 1 h,
O=P1(N(CCCl)CCCl)NCCCO1 (stereo not drawn) [cyclophosphamide],,,3 to 4 days
